Assays:
Acetylcholinesterase = Acetylcholinesterase (Homo sapiens, UniProt P22303); type: functional
[1] = target: T1, Alpha-1A adrenergic receptor (Homo sapiens, UniProt P35348); type: functional, cell-based
T1 sequence (P35348 whole entry): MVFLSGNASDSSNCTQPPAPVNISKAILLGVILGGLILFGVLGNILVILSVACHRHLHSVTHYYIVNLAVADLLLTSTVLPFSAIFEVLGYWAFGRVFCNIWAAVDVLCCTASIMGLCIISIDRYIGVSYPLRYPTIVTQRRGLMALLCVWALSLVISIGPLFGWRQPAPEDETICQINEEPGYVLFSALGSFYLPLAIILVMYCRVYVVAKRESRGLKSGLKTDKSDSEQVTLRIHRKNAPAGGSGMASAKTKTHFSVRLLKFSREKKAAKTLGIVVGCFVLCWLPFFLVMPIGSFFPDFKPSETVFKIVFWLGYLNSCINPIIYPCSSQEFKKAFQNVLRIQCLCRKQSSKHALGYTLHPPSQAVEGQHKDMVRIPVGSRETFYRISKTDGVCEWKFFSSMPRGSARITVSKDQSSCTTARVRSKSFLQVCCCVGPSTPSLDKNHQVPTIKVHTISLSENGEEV

[2] = target: T1, Alpha-1A adrenergic receptor; type: functional, cell-based; remark: listed apart in the source
[3] = target: T2, Alpha-2A adrenergic receptor (Homo sapiens, UniProt P08913)
T2 sequence (P08913 whole entry): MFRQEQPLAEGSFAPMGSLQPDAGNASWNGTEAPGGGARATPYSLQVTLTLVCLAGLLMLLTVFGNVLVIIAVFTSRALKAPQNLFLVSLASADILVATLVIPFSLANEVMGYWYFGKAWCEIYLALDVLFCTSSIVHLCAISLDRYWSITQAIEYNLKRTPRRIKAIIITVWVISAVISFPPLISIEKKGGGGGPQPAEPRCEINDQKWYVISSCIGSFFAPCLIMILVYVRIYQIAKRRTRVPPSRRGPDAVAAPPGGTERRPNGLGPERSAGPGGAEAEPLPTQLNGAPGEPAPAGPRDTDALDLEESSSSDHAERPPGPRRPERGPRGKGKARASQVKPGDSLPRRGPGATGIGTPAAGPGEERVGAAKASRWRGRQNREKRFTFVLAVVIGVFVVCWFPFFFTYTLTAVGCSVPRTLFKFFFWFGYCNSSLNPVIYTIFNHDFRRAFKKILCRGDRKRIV

Androgen receptor = target: T3, Androgen receptor (Homo sapiens, UniProt P10275)
T3 sequence (P10275 whole entry): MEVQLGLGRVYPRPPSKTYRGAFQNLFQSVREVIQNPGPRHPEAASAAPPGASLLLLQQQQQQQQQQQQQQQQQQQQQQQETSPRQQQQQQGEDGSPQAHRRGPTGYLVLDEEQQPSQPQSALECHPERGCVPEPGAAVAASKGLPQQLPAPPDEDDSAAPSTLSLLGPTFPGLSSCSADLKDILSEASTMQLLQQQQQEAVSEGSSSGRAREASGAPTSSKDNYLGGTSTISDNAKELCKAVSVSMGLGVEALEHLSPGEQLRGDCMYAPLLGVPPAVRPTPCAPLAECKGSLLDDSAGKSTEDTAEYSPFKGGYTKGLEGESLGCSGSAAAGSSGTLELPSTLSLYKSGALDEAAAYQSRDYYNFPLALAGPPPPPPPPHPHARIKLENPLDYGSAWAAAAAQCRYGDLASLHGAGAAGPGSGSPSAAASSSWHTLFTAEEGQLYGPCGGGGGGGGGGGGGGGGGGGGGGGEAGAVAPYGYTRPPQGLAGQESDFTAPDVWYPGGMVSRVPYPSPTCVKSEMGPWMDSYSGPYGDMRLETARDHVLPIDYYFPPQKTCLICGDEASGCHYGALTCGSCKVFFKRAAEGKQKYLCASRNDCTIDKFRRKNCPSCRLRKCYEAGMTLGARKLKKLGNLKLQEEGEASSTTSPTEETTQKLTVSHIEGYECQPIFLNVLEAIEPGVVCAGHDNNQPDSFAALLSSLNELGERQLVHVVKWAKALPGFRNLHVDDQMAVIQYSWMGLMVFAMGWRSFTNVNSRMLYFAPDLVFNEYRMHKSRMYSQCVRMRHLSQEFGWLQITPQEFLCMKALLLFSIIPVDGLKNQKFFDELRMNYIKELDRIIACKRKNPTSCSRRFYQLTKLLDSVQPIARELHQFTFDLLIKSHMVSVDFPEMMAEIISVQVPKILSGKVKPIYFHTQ

[4] = target: Voltage-dependent L-type calcium channel subunit alpha-1C (Homo sapiens, UniProt Q13936); type: functional, cell-based
Histamine H3 receptor = Histamine H3 receptor (Homo sapiens, UniProt Q9Y5N1)
[5] = target: T4, Amine oxidase [flavin-containing] A (Homo sapiens, UniProt P21397); type: functional
T4 sequence (P21397 whole entry): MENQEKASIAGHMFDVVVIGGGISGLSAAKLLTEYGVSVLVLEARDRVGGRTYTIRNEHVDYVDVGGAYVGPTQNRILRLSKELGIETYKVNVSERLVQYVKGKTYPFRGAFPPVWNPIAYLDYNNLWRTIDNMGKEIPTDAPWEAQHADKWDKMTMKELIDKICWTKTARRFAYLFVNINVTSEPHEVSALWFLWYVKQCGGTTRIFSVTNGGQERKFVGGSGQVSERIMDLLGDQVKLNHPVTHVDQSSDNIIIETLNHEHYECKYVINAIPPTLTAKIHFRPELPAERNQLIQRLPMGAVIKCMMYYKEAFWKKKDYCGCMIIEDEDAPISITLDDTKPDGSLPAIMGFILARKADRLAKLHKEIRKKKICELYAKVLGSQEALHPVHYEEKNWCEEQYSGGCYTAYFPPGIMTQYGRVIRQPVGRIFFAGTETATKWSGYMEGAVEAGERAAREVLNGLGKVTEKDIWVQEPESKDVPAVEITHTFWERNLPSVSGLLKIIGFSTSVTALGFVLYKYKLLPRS

[6] = target: Voltage-dependent L-type calcium channel subunit alpha-1C (Rattus norvegicus, UniProt P22002); type: functional
[7] = target: Neuronal acetylcholine receptor subunit alpha-4 (Homo sapiens, UniProt P43681)
[8] = target: T5, Gamma-aminobutyric acid receptor subunit alpha-1 (Rattus norvegicus, UniProt P62813)
[9] = target: T5, Gamma-aminobutyric acid receptor subunit alpha-1; type: functional
[10] = target: Glutamate receptor ionotropic, NMDA 1 (Rattus norvegicus, UniProt P35439)
[11] = target: Voltage-gated inwardly rectifying potassium channel KCNH2 (Homo sapiens, UniProt Q12809); type: functional
[12] = target: Delta-type opioid receptor (Homo sapiens, UniProt P41143)
[13] = target: Kappa-type opioid receptor (Homo sapiens, UniProt P41145)
Mu-type opioid receptor [14] = target: T6, Mu-type opioid receptor (Homo sapiens, UniProt P35372); assay: biochemical; type: functional
[15] = target: Sodium-dependent noradrenaline transporter (Homo sapiens, UniProt P23975)
Mu-type opioid receptor [16] = target: T6, Mu-type opioid receptor
[17] = target: Epidermal growth factor receptor (Homo sapiens, UniProt P00533); type: functional
[18] = target: Growth hormone secretagogue receptor type 1 (Homo sapiens, UniProt Q92847)
[19] = target: T1, Alpha-1A adrenergic receptor
[20] = target: Beta-1 adrenergic receptor (Homo sapiens, UniProt P08588); type: functional
[21] = target: Beta-2 adrenergic receptor (Homo sapiens, UniProt P07550)
Thromboxane A2 receptor = target: T7, Thromboxane A2 receptor (Homo sapiens, UniProt P21731); type: functional, cell-based
T7 sequence (P21731 whole entry): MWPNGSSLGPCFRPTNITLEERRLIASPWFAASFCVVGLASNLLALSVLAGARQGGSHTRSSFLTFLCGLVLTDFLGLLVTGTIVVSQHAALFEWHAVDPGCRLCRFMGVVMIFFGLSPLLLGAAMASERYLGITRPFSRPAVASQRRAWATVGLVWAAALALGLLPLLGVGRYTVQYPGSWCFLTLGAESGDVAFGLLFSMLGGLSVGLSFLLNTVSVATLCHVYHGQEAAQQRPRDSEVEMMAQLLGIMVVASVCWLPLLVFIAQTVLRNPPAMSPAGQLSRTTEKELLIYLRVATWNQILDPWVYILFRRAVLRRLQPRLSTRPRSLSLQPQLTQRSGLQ
Also: assay procedure not described here.

Acetylcholinesterase, sequence (P22303 whole entry): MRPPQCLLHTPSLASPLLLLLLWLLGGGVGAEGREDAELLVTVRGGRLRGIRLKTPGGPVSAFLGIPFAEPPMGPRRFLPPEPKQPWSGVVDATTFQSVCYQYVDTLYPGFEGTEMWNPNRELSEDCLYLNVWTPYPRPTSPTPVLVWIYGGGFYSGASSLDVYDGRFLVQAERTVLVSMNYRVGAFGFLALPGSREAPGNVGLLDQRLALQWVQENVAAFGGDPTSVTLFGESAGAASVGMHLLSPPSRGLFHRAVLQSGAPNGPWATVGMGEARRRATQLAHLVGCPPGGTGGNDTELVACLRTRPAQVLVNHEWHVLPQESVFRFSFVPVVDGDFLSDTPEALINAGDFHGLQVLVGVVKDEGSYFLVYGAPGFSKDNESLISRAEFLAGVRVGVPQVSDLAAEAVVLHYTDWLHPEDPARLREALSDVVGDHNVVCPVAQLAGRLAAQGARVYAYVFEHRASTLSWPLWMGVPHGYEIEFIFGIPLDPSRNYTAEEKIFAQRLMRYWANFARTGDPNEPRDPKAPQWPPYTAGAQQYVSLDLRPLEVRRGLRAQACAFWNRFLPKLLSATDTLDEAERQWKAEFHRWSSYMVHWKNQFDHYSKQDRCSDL
T5 sequence (P62813 whole entry): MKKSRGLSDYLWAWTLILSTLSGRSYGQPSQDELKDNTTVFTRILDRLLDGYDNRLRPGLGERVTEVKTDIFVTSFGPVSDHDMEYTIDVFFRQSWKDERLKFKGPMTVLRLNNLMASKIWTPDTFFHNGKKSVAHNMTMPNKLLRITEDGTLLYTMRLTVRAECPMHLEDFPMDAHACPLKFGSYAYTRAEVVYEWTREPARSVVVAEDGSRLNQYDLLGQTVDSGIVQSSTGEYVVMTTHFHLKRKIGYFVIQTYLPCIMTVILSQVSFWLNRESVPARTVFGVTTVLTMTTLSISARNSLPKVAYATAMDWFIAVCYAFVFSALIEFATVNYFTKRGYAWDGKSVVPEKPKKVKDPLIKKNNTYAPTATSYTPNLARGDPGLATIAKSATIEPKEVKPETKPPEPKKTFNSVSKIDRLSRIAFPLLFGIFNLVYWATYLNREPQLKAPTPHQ
Voltage-dependent L-type calcium channel subunit alpha-1C (Rattus norvegicus, UniProt P22002), sequence (P22002 whole entry): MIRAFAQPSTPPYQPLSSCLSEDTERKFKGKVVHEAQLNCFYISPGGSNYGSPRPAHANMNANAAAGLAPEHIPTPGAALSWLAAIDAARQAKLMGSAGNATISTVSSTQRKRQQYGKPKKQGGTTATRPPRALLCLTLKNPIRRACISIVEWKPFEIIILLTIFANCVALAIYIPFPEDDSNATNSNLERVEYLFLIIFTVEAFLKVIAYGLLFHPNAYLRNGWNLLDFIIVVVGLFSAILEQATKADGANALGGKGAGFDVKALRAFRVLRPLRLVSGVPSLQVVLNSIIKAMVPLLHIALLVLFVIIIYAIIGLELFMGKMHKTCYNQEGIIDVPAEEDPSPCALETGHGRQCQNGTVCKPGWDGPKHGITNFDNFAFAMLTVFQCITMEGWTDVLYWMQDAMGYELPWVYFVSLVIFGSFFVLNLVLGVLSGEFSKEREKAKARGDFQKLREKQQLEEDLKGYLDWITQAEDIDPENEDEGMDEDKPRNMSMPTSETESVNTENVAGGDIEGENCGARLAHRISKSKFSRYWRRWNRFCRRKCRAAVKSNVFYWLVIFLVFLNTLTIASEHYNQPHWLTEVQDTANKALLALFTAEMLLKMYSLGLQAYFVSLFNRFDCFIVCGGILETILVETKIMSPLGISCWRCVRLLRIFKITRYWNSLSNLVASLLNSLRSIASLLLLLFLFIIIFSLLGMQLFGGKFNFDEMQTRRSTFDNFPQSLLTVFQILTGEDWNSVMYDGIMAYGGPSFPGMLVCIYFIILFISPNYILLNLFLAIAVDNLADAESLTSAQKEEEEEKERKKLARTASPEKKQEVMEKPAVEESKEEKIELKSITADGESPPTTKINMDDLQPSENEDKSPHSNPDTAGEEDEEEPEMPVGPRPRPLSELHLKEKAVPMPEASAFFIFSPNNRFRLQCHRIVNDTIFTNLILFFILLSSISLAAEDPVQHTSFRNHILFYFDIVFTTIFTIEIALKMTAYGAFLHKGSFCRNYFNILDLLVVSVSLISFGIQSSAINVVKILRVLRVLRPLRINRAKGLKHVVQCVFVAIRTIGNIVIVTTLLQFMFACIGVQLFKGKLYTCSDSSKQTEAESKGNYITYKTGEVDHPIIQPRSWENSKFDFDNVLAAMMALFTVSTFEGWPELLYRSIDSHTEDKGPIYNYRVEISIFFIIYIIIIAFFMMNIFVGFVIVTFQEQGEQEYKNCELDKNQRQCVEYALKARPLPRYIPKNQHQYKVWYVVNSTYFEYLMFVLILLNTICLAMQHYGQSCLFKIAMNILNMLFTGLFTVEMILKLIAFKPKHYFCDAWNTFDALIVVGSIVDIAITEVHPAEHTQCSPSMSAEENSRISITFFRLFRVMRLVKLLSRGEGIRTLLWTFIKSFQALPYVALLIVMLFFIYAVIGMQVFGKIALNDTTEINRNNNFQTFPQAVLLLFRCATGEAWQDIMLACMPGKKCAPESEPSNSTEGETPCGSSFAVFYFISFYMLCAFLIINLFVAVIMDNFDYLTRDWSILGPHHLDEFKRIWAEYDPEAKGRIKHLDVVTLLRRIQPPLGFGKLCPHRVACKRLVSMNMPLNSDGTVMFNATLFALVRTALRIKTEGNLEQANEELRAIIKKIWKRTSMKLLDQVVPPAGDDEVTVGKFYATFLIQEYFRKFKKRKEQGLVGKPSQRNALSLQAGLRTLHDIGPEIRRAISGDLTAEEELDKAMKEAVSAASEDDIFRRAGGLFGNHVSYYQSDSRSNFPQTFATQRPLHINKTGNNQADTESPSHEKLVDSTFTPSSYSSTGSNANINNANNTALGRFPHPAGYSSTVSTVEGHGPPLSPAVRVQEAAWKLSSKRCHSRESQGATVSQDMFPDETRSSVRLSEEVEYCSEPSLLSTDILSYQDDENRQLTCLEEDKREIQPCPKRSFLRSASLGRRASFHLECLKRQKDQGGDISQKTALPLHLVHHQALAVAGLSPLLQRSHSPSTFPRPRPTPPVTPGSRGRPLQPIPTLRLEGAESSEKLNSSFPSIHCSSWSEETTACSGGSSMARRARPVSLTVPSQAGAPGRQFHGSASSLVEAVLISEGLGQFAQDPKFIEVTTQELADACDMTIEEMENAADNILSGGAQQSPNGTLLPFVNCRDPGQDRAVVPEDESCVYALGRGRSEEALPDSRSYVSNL
T6 sequence (P35372 whole entry): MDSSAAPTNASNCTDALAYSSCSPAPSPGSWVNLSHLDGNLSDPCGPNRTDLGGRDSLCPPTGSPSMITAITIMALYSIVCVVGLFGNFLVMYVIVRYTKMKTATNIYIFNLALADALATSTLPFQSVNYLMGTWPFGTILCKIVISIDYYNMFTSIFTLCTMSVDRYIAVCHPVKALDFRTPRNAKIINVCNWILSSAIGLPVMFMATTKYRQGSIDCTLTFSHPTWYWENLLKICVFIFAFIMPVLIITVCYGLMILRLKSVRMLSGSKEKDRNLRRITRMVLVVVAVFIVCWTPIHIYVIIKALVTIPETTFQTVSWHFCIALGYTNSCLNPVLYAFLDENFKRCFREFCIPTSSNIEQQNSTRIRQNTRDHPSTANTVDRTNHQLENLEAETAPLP
Beta-2 adrenergic receptor, sequence (P07550 whole entry): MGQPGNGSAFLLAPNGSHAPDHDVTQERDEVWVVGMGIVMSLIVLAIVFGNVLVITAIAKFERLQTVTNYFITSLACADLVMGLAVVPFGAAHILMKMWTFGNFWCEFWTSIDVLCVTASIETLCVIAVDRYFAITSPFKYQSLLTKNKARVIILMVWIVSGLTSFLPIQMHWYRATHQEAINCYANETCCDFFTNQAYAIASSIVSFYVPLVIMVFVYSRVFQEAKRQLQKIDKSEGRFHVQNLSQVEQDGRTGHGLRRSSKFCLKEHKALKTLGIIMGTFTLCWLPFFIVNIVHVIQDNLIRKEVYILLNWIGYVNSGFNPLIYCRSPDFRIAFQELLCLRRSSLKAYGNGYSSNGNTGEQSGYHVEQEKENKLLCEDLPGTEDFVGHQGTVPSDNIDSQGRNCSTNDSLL
Growth hormone secretagogue receptor type 1, sequence (Q92847 whole entry): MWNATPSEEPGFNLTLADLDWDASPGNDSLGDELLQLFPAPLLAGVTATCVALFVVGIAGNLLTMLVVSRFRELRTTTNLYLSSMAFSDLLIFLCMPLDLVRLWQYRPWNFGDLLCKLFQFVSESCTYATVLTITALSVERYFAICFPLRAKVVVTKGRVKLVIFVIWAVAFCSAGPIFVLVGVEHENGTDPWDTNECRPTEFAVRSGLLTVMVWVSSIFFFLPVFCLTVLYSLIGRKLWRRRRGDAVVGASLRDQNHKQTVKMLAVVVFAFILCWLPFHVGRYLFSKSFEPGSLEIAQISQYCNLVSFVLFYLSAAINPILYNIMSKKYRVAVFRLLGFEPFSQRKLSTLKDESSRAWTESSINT
Sodium-dependent noradrenaline transporter, sequence (P23975 whole entry): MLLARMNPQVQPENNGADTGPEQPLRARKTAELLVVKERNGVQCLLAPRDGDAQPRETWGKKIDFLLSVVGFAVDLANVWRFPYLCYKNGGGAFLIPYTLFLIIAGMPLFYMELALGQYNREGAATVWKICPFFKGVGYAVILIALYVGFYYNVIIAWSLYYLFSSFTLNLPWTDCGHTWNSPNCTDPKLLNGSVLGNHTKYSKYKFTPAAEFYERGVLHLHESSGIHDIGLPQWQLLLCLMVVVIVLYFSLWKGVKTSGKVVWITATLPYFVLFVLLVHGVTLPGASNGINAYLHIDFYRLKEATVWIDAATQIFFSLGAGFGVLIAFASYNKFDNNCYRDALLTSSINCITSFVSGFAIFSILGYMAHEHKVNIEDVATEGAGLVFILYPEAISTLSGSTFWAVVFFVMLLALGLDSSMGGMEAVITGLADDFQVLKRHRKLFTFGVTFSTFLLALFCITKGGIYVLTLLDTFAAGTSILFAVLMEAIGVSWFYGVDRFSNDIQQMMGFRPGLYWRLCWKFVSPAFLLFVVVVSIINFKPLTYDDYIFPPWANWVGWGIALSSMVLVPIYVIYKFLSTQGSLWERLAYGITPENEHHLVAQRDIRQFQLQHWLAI

N=C(N)c1ccc(OCCCCCOc2ccc(C(=N)N)cc2)cc1 [PENTAMIDINE]
AC50 (Acetylcholinesterase): 7.28 µM

c1ccc(C2(c3ccccc3)CC2C2=NCCN2)cc1 (centres undefined) [CIFENLINE]
AC50 (Acetylcholinesterase): > 30 µM | AC50 [1]: > 30 µM | AC50 [2]: > 30 µM | AC50 [3]: > 30 µM | AC50 (Androgen receptor): 22.6 µM | AC50 [4]: > 50 µM | AC50 (Histamine H3 receptor): > 30 µM | AC50 [5]: > 30 µM

CSCC[C@H](NC(=O)[C@H](Cc1c[nH]c2ccccc12)NC(=O)CCNC(=O)OC(C)(C)C)C(=O)N[C@@H](CC(=O)O)C(=O)N[C@@H](Cc1ccccc1)C(N)=O [PENTAGASTRIN]
AC50 [6]: > 10 µM | AC50 [7]: > 10 µM | AC50 [8]: > 10 µM | AC50 [9]: > 10 µM | AC50 [10]: > 10 µM | AC50 [11]: > 30 µM | AC50 [12]: > 30 µM | AC50 [13]: > 10 µM | AC50 (Mu-type opioid receptor [14]): > 30 µM | AC50 [15]: > 10 µM | AC50 (Mu-type opioid receptor [16]): > 30 µM

CC(C)Oc1ccc2c(=O)c(-c3ccccc3)coc2c1 [IPRIFLAVONE]
AC50 (Acetylcholinesterase): > 30 µM

O=C(O)Cc1cc(I)c(Oc2ccc(O)c(I)c2)c(I)c1 [TIRATRICOL]
AC50 [17]: > 30 µM | AC50 [18]: > 30 µM

CCc1cc(C(N)=S)ccn1 [ETHIONAMIDE]
AC50 [19]: > 10 µM | AC50 [20]: > 10 µM | AC50 [21]: > 10 µM | AC50 [6]: > 10 µM | AC50 [10]: > 10 µM

CCCCC[C@H](O)/C=C/[C@@H]1[C@@H](C/C=C\CCCC(=O)O)[C@@H](O)C[C@H]1O [DINOPROST]
AC50 (Thromboxane A2 receptor): 2.76 µM

From ChEMBL document CHEMBL5291721, “A preclinical secondary pharmacology resource illuminates target-adverse drug reaction associations of marketed drugs” (Nat Commun, 2023)
